The values below come from patent publication US20110097274A1, “Carbon-11 and fluorine-18 labeled radioligands for positron emission tomography (PET) imaging for the brain serotonin transporters” (priority 2002, published 2011).

Read-outs that look alike come from different tables or passages of the source.

The nature of data set [1]: Baboon PET study: plasma analysis / input function of parent compound. It is filed as in vivo. Particulars: baboons; for Vbol (initial distribution volume of parent compound) / Clearance of parent compound: i.v.; for Vbol (initial distribution volume of parent compound) / Clearance / Clearance of parent compound: mean ± SD of four experiments; for Clearance: male, monkey, arterial plasma, iv. On the procedure: PET imaging protocol: PET experiments (n=20) were performed at Columbia University. Two adult male baboons (baboon A and B) were studied twice with each of the 5 radioligands (4 experiments per radioligand). All experiments took place within a 9-month period. Baboons A and B were 31 kg and 21 kg in weight at the beginning of the experimental period and 28 and 22 kg at the end, respectively.
Experiments were performed according to protocols approved by the Columbia-Presbyterian Medical Center Institutional Animal Care and Use Committee. […] Vital signs were monitored every 10 minutes and the temperature was kept constant at 37° C. with heated water blankets. An i.v. perfusion line was used for hydration and injection of radioligands and nonradioactive drugs. A catheter was inserted in a femoral artery for arterial blood sampling. Head was positioned at the center of the field of view as defined by imbedded laser lines. PET imaging was performed with the ECAT EXACT HR+PET scanner (Siemens/CTI, Knoxville, Tenn.). […] A 15 minute transmission scan was obtained prior to radioligand injection for attenuation correction. Activity was injected i.v. over 30 seconds.
Input function measurements: Arterial samples were collected every 5 seconds with an automated system for the first two minutes and manually thereafter at various intervals. A total of 28 samples were collected.
Selected plasma samples (n=6 per study, collected at 2, 4, 12, 30, 60 and 90 minutes after radioligand administration) were further processed by extraction with methanol (MeOH) followed by HPLC analysis to measure the fraction of plasma activity representing unmetabolized parent compound. The parent fraction was measured as follows: plasma (0.5 mL) was pipetted into a centrifuge tube containing MeOH (1.0 mL). […] The liquid phase was separated from the precipitate. Activity in 0.1 mL of the liquid phase was counted and the rest was injected onto the HPLC. The HPLC eluate was fraction-collected in 6 counting tubes (4.0 mL each). The HPLC system consisted of a Waters 510 isocratic pump, a Rheodyne injector equipped with a 2 mL sample loop, a C18 analytical column (Phenomenex ODS-prep, 10 μm, 4.6×250 mm), a Bioscan Flow Cell gamma detector (Bioscan, Washington, D.C.), and a fraction collector. The column was eluted with a mixture of acetonitrile and aqueous 0.1 M ammonium formate (proportion depending on the tracer being analyzed) at a flow rate of 2 mL/minute. Before plasma sample analysis, the retention time of the parent tracer was established by injection of a few μCi of the tracer and detection of the peak using the Bioscan gamma detector.
The parent fraction was calculated as the ratio of activity in the fractions containing the parent to that of the total activity collected. A biexponential function was fitted to the six measured parent fractions, and used to interpolate values between and after the measurements. […] The input function was then calculated as the product of total counts and interpolated fraction parent at each time point. The measured input function values were fitted to a sum of three exponentials, and the fitted values were used as input for the kinetic analyses. […] The initial distribution volume (Vbol, L) was calculated as the ratio of injected dose to peak plasma concentration.

Data set [2] can be described thus: Plasma free fraction (f1) and filter retention by ultrafiltration. It counts as in vitro ADME, baboon. Particulars: mean ± SD of four experiments; for Filter retention: activity remaining on filter, radioligand dissolved in saline; for fraction unbound at 20 min: monkey. On the procedure:
Plasma and ultrafiltrate activities were counted, and f1 was calculated as the ratio of ultrafiltrate activity to total plasma activity. Triplicate aliquots of the radioligand in pH 7.4 Tris buffer were also processed to determine the filter retention of free tracer.

The nature of data set [3]: Baboon PET imaging: brain uptake, kinetic analysis and SERT parameters. Particulars: male, baboon, intravenous, baboons. It is filed as in vivo. On the procedure: PET imaging protocol: PET experiments (n=20) were performed at Columbia University. Two adult male baboons (baboon A and B) were studied twice with each of the 5 radioligands (4 experiments per radioligand). All experiments took place within a 9-month period. Baboons A and B were 31 kg and 21 kg in weight at the beginning of the experimental period and 28 and 22 kg at the end, respectively. Test and retest experiments with the same radioligand were obtained on different days, with an average interval of 117±53 days.
Experiments were performed according to protocols approved by the Columbia-Presbyterian Medical Center Institutional Animal Care and Use Committee. Fasted animals were immobilized with ketamine (10 mg/kg i.m.), and anesthetized with 1.8% isoflurane via an endotracheal tube. Vital signs were monitored every 10 minutes and the temperature was kept constant at 37° C. with heated water blankets. An i.v. perfusion line was used for hydration and injection of radioligands and nonradioactive drugs. A catheter was inserted in a femoral artery for arterial blood sampling. Head was positioned at the center of the field of view as defined by imbedded laser lines. PET imaging was performed with the ECAT EXACT HR+PET scanner (Siemens/CTI, Knoxville, Tenn.). In 3D mode, this camera provides an in-plane resolution of 4.3 mm, 4.5 mm, 5.4 mm and 8.0 mm full width at half maximum (FWHM) at a distance of 0, 1, 10 and 20 cm from the center of the field of view, respectively (Brix et al., 1997). A 15 minute transmission scan was obtained prior to radioligand injection for attenuation correction. Activity was injected i.v. over 30 seconds. […] Emission data was collected in the 3D mode for 91 minutes as 21 successive frames of increasing duration (6*10 seconds, 2*1 minutes, 4*2 minutes, 2*5 minutes, and 7*10 minutes).
Image analysis: A Magnetic Resonance Image (MRI) of each baboon's brain was obtained for the purpose of identifying the regions of interest (ROI) (T1-weighted axial MRI sequence, acquired parallel to the anterior-posterior commissure, TR 34 msec, TE 5 msec, flip angle of 45 degrees, slice thickness is 1.5 mm, zero gap, matrix 1.5 mm×1 mm×1 mm voxels). The following regions were drawn on the MR images: cerebellum, midbrain, thalamus, striatum, hippocampus, temporal cortex, cingulate cortex and occipital cortex.
PET emission data were attenuation-corrected using the transmission scan, and frames were reconstructed using a Shepp filter (cutoff 0.5 cycles/projection rays). Reconstructed image files were then processed using the image analysis software MEDx (Sensor Systems, Inc., Sterling, Va.). An image was created by summing all the frames, and this summed image was used to define the registration parameters with the MR image, using between-modality automated image registration (AIR) algorithm (Woods et al., 1993). Registration parameters were then applied to the individual frames for registration to the MR data set. Regional boundaries were transferred to the individual registered PET frames, and time-activity curves were measured and decay-corrected. Right and left regions were averaged. For a given animal, the same regions were used for all radioligands.
Brain uptake: Total brain uptake was expressed as percentage of the injected dose per gram of tissue (% ID g^−1) in a region encompassing the entire brain. Regional peak time was defined as the mid-time of the frame associated with the highest activity value. To estimate the degree of wash-out from the brain captured during the scan interval (91 minutes), the decrease in activity from the peak frame to the last frame was calculated and expressed in percentage of the peak activity.
Kinetic analysis: Regional total distribution volumes (VT, mL g^−1) were derived with kinetic analysis of the regional time-activity curves, using the arterial plasma concentrations as input function. […]

The mark [4] stands for this setting: male, baboon plasma, ultrafiltration.
Where [5] appears, read: brain regions (average of all regions), read-out: VT, average of all regions and all animals.
[6] abbreviates: cerebellum, one-tissue compartment model, mean ± SD of four experiments, read-out: VT Cerebellum (VT CER, nonspecific distribution volume).

As for `CN(C)Cc1ccccc1Sc1ccc(C#N)cc1N` [[^11C]DASB], in data set [1], the “Parent fraction in plasma at 30 minutes” value amounted to 20±1%, the “Vbol (initial distribution volume of parent compound)” value (“Vbol” below) came out at 12.6 ± 2.2 L and the Clearance was 1400 mL/min. The compound further displayed a Filter retention in data set [2] of 19.2 ± 4.7%. In data set [2] (setting [4]), this compound showed a fraction unbound at 20 minutes of 0.135 ± 0.017. Moreover, in data set [3] (brain nonspecific distribution volume (cerebellum), calculated from f1 and cerebellar VT, read-out: f2 (free fraction in the nonspecific distribution volume)), the fraction unbound was 0.0077 ± 0.0008. For the same compound, the Kp in data set [3] (setting [5]) worked out at 29.2 ± 11.5. Besides, the Kp in data set [3] (setting [6]) was 17.3 ± 0.5.

As for `CN(C)Cc1ccccc1Sc1ccc(Br)cc1N` [[^11C]DAPA], the “Vbol” value in data set [1] turned out to be 8.5 ± 1.8 L. In data set [1], the Clearance was 967 mL/min. This compound yielded a Filter retention in data set [2] of 77.9 ± 6.6%. This compound also came in with a fraction unbound at 20 min in data set [2] (setting [4]) of 0.018 ± 0.005. The Kp in data set [3] (setting [5]) was 47.8 ± 16; in data set [3] (setting [6]) it was 29.3 ± 2.9.

In the case of `CN(C)Cc1ccccc1Sc1ccc(I)cc1N` [[^11C]ADAM], in data set [1], the “Vbol” value amounted to 8.1 ± 3.1 L and the Clearance is 1120 mL/min. In data set [2], this compound registered a Filter retention of 88.2 ± 5.2%. Besides, the fraction unbound at 20 min in data set [2] (setting [4]) was 0.009 ± 0.007. The Kp in data set [3] (setting [5]) was found to be 42.8 ± 12.9. The Kp in data set [3] (setting [6]) turned out to be 28.5 ± 4.8.

In the case of `[11CH3]Sc1ccc([C@H]2CN3CCC[C@H]3c3ccccc32)cc1` [[^11C]McN 5652], in data set [1], the “Parent fraction in plasma at 30 minutes” value was 28±13%, the “Clearance of parent compound” value worked out at 58 ± 13 L/h and the “Vbol” value stood at 5.9 ± 1.8 L.

As to `CN([11CH3])Cc1ccccc1Sc1ccc(CF)cc1N` [[^11C]AFM, [^11C]2-[2-(Dimethylaminomethyl)phenylthio]-5-fluoromethylphenylamine], in data set [1], the “Clearance of parent compound” value is 90 ± 46 L/h and the “Vbol” value stood at 17.6 ± 1.3 L. For the same compound, the Filter retention in data set [2] came out at 19.3 ± 4.1%. Besides, the “f1 (plasma free fraction)” value in data set [2] (baboon plasma, ultrafiltration) is 9.6 ± 0.5%.
